What was measured:
[1] = Photophysical characterization of probes and uncaged forms (relative fluorescence quantum yield, extinction coefficient, brightness); format: physicochemical
Procedure, shortened: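 Relative fluorescence quantum yields of caged probes and uncaged forms, referenced to coumarin 343 (ΦF 0.63 in ethanol) for triazole-coumarins and fluorescein (ΦF 0.79 in ethanol) for triazole-fluoresceins. Measured in Tris 50 mM, pH 7.5; coumarin largely aryloxide (TEG-TC pKa 7.1±0.1 by UV-Vis).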

RAW-264.7 cells = test: Confocal imaging and colocalization in live RAW-264.7 cells; format: cell-based, murine
Protocol: FIGS. 10A-10E: confocal imaging of lipid environments targeted by ONOO^− in live RAW246.7 cells. Cells were seeded into glass microscope dishes, incubated with LNPs (50 μM) and stained with organelle trackers and/or actin dye prior to imaging. LNPs obtained from a 47.5:47.5:5.0 molar ratio of DOTMA, DOPE, and DPPC-TC-ONOO^−. FIG. 10A: cells treated with LNPs, stimulated with LPS. Time coarse images acquired after addition of LPS. FIG. 10B: cells treated with LNPs and 1400 W. FIG. 10C: cells treated with LNPs, then with 1400 W and LPS. FIGS. 10D-10E: quantitative colocalization study of cells treated with LNPs and stimulated with LPS. Pearson's correlation coefficient (PCC) was calculated for quantitative assessment of colocalization using organelle trackers as described above. Scale bars=20 μm (FIGS. 10A-10D) or 5 μm (FIG. 10E). With the utility of DPPC-TC-ONOO^− proven in synthetic protocell membranes, incorporation into live HeLa and RAW 264.7 cells was sought, which are relevant to redox-induced stress and have well-recognized pathways for RNS and ROS production. Lipid nanoparticles (LNPs) (˜100 nm in diameter) was used to deliver DPPC-TC-ONOO− into cells. This method circumvented the limited solubility of DPPC-TC-ONOO− due to the relatively hydrophobic butanone-coumarin motif. LNPs were obtained via sonication from 1,2-di-O-octadecenyl-3-trimethylammonium propane (DOTMA), 1,2-dioleoyl-sn-glycero-3-phosphoethanolamine (DOPE), and DPPC-TC-ONOO− (47.5:47.5:5.0 molar ratio), which were hydrated with a 300 mM sucrose solution. DOTMA and DOPE were chosen as the carrier lipids due to their cationic/zwitterionic natures, which has been postulated to enhance uptake through the cell membrane. The impact of different LNP compositions and incubation times on the cellular incorporation of DPPC-TC-ONOO^− was assessed. […] Specifically, LNPs containing greater than 10 mol % DPPC-TC-ONOO− were considerably more heterogenous in size (up to […] observed, in contrast to ˜100 nm) and nonuniform in vesicle lamellarity. Those with less than 4 mol % DPPC-TC-ONOO− led to insufficient fluorescence signal. To balance these counteracting factors, 5 mol % DPPC-TC-ONOO− was used, with 47.5 mol % DOTMA and DOPE, each. In these initial assays, cells were incubated with LNPs for up to 15 hours to complete the uptake and intracellular localization of DPPC-TC-ONOO−. Shorter incubation times (3-to-5 hours) led to its uptake but not subcellular localization. […] However, high serum concentration in DMEM caused interference between LNPs and serum-protein, resulting in aggregate formation as observed by microscopy. To overcome this obstacle, LNPs (50 μM) were used in a mixture of 2/3 volumetric ratio of sucrose solution and Opti-MEM™, a reduced serum medium known to increase the efficiency of lipofection. The investigations were expanded to include murine-derived macrophage model, RAW-264.7 (FIGS. 10A-10E). RNS play important roles in macrophage activation and differentiation as part of the inflammatory response. Treatment of RAW-264.7 cells with LPS leads to the expression of iNOS, which produces NO·, which then reacts with O2·^−, generating ONOO−. RAW-264.7 cells were treated with LNPs containing either DPPC-TC (positive control) or DPPC-TC-ONOO^− (FIGS. 10A-10E). […] Assessment of DPPC-TC-ONOO^− localization in RAW-264.7 cells was carried out using the ER, Golgi, mitochondrion, and lysosome trackers (FIGS. 10D-10E).

Emmax [1]: 471.2 nm | Exmax [1]: 395.0 nm | Ext. Coeff. [1]: 2784 M⁻¹ cm⁻¹
SMILES: CCCCCCCCCCCCCCCC(=O)OCC(COP(=O)([O-])OCC[N+](C)(C)Cc1cn(-c2cc3ccc(OC(=O)Oc4ccc(CCC(=O)C(F)(F)F)cc4)cc3oc2=O)nn1)OC(=O)CCCCCCCCCCCCCCC (racemic) [DPPC-TC-ONOO^−]
signal in the DPPC-TC channel (RAW-264.7 cells; RAW-264.7, 1400 W only or 1400 W and LPS): little-to-no signal | PCC (RAW-264.7 cells; RAW-264.7, ER tracker): 0.946 | PCC (RAW-264.7 cells; RAW-264.7, Golgi tracker): 0.729 | fluorescence intensity (RAW-264.7 cells; RAW-264.7, LNPs, stimulation with LPS over 16 hours): substantial increase in fluorescence intensity | signal at 405/475 nm (RAW-264.7 cells; RAW-264.7, LNPs, unstimulated): negligible levels of signal

— patent US20240385182A1, “MASKED FLUOROGENIC LIPID COMPOUNDS, LIPID PARTICLES COMPRISING THE SAME, AND METHODS OF USE THEREOF” (Rutgers, The State University of New Jersey, priority 2023, published 2024)
